Results published in ChEMBL document CHEMBL1146818, “Yeast and mammalian alpha-glucosidase inhibitory constituents from Himalayan rhubarb Rheum emodi Wall.ex Meisson” (Bioorg Med Chem Lett, 2004).
The source made the active and inactive calls. The rule behind the calls is not given here.

Assays:
[1] = target: Sucrase-isomaltase, intestinal (Rattus norvegicus) (UniProt P23739); test: Inhibitory activity against rat alpha-glucosidase; moderate activity observed
[2] = Inhibitory activity against yeast alpha-glucosidase; active; settings: Saccharomyces cerevisiae
[3] = target: Sucrase-isomaltase, intestinal (Rattus norvegicus) (UniProt P23739); test: Inhibitory activity against rat alpha-glucosidase; mild activity observed
[4] = Inhibitory activity against yeast alpha-glucosidase; mild activity observed; settings: Saccharomyces cerevisiae

Sequence of Sucrase-isomaltase, intestinal (Rattus norvegicus) (P23739 1-1013 limits assumed): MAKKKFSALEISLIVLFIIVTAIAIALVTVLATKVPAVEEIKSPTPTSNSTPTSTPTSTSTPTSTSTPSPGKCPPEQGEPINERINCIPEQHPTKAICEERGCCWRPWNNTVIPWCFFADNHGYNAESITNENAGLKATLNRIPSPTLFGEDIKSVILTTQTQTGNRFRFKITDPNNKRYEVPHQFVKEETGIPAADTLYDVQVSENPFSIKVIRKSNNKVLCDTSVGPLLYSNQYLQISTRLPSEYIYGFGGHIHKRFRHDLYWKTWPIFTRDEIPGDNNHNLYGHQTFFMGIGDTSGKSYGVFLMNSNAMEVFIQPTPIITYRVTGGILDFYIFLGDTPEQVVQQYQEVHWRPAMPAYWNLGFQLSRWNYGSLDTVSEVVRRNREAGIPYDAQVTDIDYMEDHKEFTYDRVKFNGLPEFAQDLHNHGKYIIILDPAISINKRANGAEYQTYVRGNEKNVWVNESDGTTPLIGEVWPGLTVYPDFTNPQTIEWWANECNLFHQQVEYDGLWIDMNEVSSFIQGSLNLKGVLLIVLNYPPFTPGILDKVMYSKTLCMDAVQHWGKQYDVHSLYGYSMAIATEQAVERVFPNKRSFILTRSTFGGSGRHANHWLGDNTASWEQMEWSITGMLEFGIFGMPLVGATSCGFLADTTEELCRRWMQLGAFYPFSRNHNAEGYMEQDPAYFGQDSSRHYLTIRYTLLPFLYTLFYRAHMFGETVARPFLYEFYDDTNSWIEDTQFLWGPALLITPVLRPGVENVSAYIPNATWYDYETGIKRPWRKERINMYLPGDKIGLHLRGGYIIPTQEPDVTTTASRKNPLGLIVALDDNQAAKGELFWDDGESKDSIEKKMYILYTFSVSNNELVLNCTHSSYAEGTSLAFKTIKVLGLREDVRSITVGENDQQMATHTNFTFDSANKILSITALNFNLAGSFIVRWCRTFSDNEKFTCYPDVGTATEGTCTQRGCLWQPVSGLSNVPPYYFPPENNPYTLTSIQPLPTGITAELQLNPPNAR
Sequence of Sucrase-isomaltase, intestinal (Rattus norvegicus) (P23739 1014-1841 limits assumed): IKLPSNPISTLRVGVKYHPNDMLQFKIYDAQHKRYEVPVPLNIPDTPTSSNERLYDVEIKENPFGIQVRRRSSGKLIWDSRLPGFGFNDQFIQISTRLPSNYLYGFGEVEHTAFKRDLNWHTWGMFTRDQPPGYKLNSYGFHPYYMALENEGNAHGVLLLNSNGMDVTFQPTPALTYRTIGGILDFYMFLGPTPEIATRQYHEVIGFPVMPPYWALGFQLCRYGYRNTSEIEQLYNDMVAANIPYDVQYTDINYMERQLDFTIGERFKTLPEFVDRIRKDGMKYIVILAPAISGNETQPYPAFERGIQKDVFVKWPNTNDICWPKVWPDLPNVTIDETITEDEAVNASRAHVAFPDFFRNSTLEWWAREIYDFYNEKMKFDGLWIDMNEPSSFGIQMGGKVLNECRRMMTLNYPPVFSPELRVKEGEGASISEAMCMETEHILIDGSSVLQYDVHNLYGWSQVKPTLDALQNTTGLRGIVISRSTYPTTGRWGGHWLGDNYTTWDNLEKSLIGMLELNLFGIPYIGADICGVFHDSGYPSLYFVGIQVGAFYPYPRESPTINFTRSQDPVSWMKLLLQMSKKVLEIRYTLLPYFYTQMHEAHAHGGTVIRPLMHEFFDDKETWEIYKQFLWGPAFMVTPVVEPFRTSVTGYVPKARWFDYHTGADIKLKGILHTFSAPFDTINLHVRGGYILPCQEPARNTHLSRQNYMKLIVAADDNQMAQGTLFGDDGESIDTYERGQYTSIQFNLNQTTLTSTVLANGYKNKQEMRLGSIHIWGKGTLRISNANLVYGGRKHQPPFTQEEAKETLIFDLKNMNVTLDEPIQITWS

| inhibition [1] | inhibition [2] | inhibition [3] | inhibition [4] | Compound |
| --- | --- | --- | --- | --- |
| moderate activity observed | Active |  |  | COc1cc(O[C@@H]2C[C@H](CO)[C@@H](O)[C@H](O)[C@H]2O)c2c(O)c(C(C)=O)c(C)cc2c1 |
|  | Active |  |  | COc1ccc(/C=C/c2cc(O)cc(O)c2)cc1O |
|  |  | Weak activity |  | COc1ccc(/C=C/c2cc(O)cc(O[C@@H]3C[C@H](CO)[C@@H](O)[C@H](O)[C@H]3O)c2)cc1 |
|  |  | Weak activity | Weak activity | Cc1cc(=O)c2c(O)cc(O)cc2o1 |
| moderate activity observed | Active |  |  | Cc1cc(O)c2c(c1)C(=O)c1cccc(O[C@@H]3C[C@H](CO)[C@@H](O)[C@H](O)[C@H]3O)c1C2=O |
|  |  | Weak activity | Weak activity | COc1cc(O)c2c(c1)C(=O)c1cc(C)cc(O)c1C2=O |
